The conditions of data set [1]: cited from earlier work.
Data set [2] can be described thus: SAXS liquid crystalline phase formation for mixes of GMO and another ingredient immersed in PBS buffer (Example 1). The data set is classed as physicochemical. How it is done:
The samples were then mixed via a roller mixer at ˜10 RPM at 40° C. for at least 3 days. One week prior to SAXS experiment, 100 mg samples were loaded into a transparent polystyrene 96 well plate (Nunc™) and immersed in 200 μL of PBS buffer (pH 6.8). The samples were stored away from light at ambient temperature, to allow the samples to reach equilibrium. The SAXS/WAXS beamline at Australian Synchrotron, Melbourne, Australia was used to determine the liquid crystalline nanostructure in the samples. A custom-designed plate holder was used to mount the samples plate directly onto the SAXS/WAXS beamline. Scans were automated using a pre-loaded set of position variables based on the well positions within the plate, the exposure time was 5 sec. Data were obtained at ambient temperature (˜22° C.). […] The 2-D diffraction images were recorded on a Pilatus 1M detector and radially integrated using the in-house software “ScatterBrain”.

For data set [3] the following is noted: WO 2014/179845; cited from earlier work.
For data set [4], the system named is porcine buccal mucosa. The data set is described as follows: In vitro release through porcine buccal mucosa in Ussing chamber. The conditions noted are these: up to 4 hours, n=5.
[5] abbreviates: 1% w/w ingredient in mix with GMO.
Where [6] appears, read: 5% w/w ingredient in mix with GMO.
The mark [7] stands for this setting: 20% and above w/w ingredient in mix with GMO.

The values below come from US20210145730A1, “PROCESS FOR PREPARING AN ORAL DISINTEGRATING DOSAGE FORM” (Zeenar Enterprises Pty Ltd, priority 2017, published 2021).

Where a name gives a salt, the structure may show the parent alone. Read-outs that look alike come from different tables or passages of the source.

For `CNCC(O)c1ccc(O)c(O)c1` (centres unmarked) [Adrenaline], the logP in data set [1] is listed as −0.5 to −1.2.
Regarding `COc1ccc(O)c(C(C)(C)C)c1` [Butylated hydroxy anisole (BHA), Butylated hydroxy anisole], the “Liquid crystalline phase formed” value in data set [2] (setting [5]) was “cubic”; in data set [2] (setting [6]), “cubic + hexagonal”; in data set [2] (10-20% w/w ingredient in mix with GMO), “hexagonal”; in data set [2] (30% and above w/w ingredient in mix with GMO), “reverse emulsion”. Further, the values for the Phase structure entry in data set [2] (Concentration in GMO 1%) and in data set [2] (Concentration in GMO 5%) were “V2(Pn3m)” and “V2(Pn3m) + H2”, respectively.
Regarding `CC1CCC(C(C)C)C(O)C1` (centres unmarked) [Menthol], the “Liquid crystalline phase formed” value in data set [2] (setting [5]) is “Cubic”; in data set [2] (1% w/w ingredient in mix with GMO, listed as menthol), “cubic liquid crystalline structure”; in data set [2] (setting [6]), “hexagonal liquid crystalline structure”; in data set [2] (5-10% w/w ingredient in mix with GMO), “Hexagonal”; in data set [2] (setting [7]), “Lamellar”; in data set [2] (20 to 50% ingredient directly mixed with GMO), “reverse lamella crystalline structure”. Further, the Phase structure result in data set [2] (Concentration in GMO 1%) is “V2(Pn3m)”.
On to `O=C(O)c1cccnc1` [Niacin], for which the “liquid crystalline phase formed by blend with GMO” value in data set [3] is reported as “hexagonal phase”. For the same molecule, in data set [1], the logP was 0.36.
In the case of `COc1ccc2c3c1O[C@H]1C(=O)CC[C@@]4(O)[C@@H](C2)N(C)CC[C@]314` [Oxycodone], in data set [4], the “release characteristics (appearance of active ingredient in the receptor chamber over time)” value was “prolonged release profile with release continuing steadily at 4 hours”.
As to `CC(C)c1nc(N(C)S(C)(=O)=O)nc(-c2ccc(F)cc2)c1/C=C/[C@@H](O)C[C@@H](O)CC(=O)O` [Rosuvastatin, reference compound], the logP is 1.80 at pH 5 in data set [1] (at pH 5) and 0.30 at pH 7 in data set [1] (at pH 7). The results for the “Liquid crystalline phase formed” value in data set [2] (setting [7]) and in data set [2] (up to 15% w/w ingredient in mix with GMO) were “Lamellar” and “Cubic (2 types)”, respectively. The Phase structure entry in data set [2] (Concentration in GMO 1%) is given as “V2(Pn3m)”; in data set [2] (Concentration in GMO 5%) it was “V2(Pn3m)”; in data set [2] (Concentration in GMO 10%), “V2(Pn3m)”; in data set [2] (Concentration in GMO 15%), “V2(Pn3m) + V2(Im3m)”; in data set [2] (Concentration in GMO 20%) it was “Lα”; in data set [2] (Concentration in GMO 35%), “Lα + Lα”. Besides, the Phase structure entry in data set [2] (Concentration in GMO 50%) was “Lα”. For the same molecule, the “limit of inclusion before GMO is prevented from forming a cubic liquid crystalline structure” value in data set [2] (directly mixed with GMO, contact with hydrophilic solvent) is 15%.
For `O=S(=O)([O-])NC1CCCCC1.[Na+]` [Sodium cyclamate], the results for the “Liquid crystalline phase formed” value in data set [2] (20% w/w ingredient in mix with GMO), in data set [2] (50% w/w ingredient in mix with GMO) and in data set [2] (up to 10% w/w ingredient in mix with GMO) were “lamellar”, “lamellar + crystals” and “cubic”, respectively. For the same molecule, the Phase structure entry in data set [2] (Concentration in GMO 1%) is “V2(Pn3m)”; in data set [2] (Concentration in GMO 5%), “V2(Pn3m)”; in data set [2] (Concentration in GMO 10%) it was “V2(Pn3m) + other”; in data set [2] (Concentration in GMO 20%) it was “Lα (lamella)”; in data set [2] (Concentration in GMO 35%), “Lα + other”; in data set [2] (Concentration in GMO 50%) it was “Lα + other”.
For `CCOC(=O)CC(O)(CC(=O)OCC)C(=O)OCC` [Tri ethyl citrate (TEC), Tri ethyl citrate], the “Liquid crystalline phase formed” value is “reverse emulsion” in data set [2] (35% and above w/w ingredient in mix with GMO); “cubic” in data set [2] (up to 20% w/w ingredient in mix with GMO). The Phase structure result in data set [2] (Concentration in GMO 1%) is “V2(Pn3m) (ie”; in data set [2] (Concentration in GMO 5%) it was “V2(Pn3m)”; in data set [2] (Concentration in GMO 10%) it was “V2(Pn3m)”; in data set [2] (Concentration in GMO 20%), “V2(Pn3m)”.
